Laboratory results taken from patent US12427192B2, “Water soluble adjuvant and composition containing same” (Sumitomo Pharma Co., Ltd., priority 2019, dated 2025).

How the values were obtained:
[1] = target: T1, human TLR7 (Homo sapiens, UniProt Q9NYK1); test: Human TLR7 reporter gene assay (HEK-Blue hTLR7 cell line), Test 22; type: cell-based; conditions: method of Test 1
T1 construct: expresses full-length human TLR7 and secretory alkaline phosphatase (SEAP) reporter gene; host or cells: HEK293 (TLR7/NF-κB/SEAPorter)
T1 sequence (Q9NYK1 27-1049): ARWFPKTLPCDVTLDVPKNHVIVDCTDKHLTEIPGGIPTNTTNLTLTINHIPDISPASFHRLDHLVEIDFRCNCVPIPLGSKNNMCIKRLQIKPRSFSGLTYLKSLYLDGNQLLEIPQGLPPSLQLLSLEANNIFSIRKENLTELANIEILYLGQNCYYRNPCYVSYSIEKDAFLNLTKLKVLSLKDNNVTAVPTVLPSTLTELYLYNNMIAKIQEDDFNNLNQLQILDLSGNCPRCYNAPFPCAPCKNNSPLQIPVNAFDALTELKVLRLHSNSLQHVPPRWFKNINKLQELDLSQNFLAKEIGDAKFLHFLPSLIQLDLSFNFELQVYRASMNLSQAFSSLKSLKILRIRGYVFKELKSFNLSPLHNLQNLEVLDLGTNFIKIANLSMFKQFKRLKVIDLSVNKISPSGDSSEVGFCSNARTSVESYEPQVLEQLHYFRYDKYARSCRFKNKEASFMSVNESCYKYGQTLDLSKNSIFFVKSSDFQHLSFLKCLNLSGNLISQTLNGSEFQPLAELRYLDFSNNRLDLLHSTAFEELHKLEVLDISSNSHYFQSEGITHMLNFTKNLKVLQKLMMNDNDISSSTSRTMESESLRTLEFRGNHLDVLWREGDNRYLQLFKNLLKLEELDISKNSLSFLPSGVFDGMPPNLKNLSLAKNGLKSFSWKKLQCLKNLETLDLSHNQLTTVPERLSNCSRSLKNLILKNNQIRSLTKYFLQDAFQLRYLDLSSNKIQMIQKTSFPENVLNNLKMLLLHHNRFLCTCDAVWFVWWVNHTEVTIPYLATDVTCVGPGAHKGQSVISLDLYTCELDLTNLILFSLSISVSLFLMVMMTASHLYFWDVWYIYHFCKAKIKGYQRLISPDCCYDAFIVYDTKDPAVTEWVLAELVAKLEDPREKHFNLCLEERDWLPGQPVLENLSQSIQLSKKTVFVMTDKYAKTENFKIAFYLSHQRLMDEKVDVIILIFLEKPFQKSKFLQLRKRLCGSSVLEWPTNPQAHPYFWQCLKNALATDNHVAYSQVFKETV
Source text: (§1) TLR7/NF-κB/SEAPorter™ HEK293 cell line (Imgenex Corporation) is a stably co-transfected cell line which expresses full-length human TLR7 and secretory alkaline phosphatase (SEAP) reporter gene under the transcriptional regulation of an NF-κB response element. The TLR7 expression of the cell line has been already tested by flow cytometry. Transfectants with stable expression were selected using the antibiotic blasticidin and Geneticin. TLR signaling leads to the translocation of NF-κB and the activation of the promoter results in expression of the SEAP gene. TLR7-specific activation was assessed by determining the level of SEAP produced following 24-hour incubation of the cells at 37° C. with each compound prepared in Examples and Reference examples in the presence of 0.1% (v/v) dimethylsulfoxide (DMSO). The human TLR7 activity for the present compound was assessed by human TLR7 reporter gene assay, and the results are shown in Tables 3 and 4 as the compound concentration which produced half of the maximal level of SEAP induction (EC50)
According to the method of Test 1, human TLR7 reporter gene assay was done with the following samples, and the result was shown in the table below. The cell used herein was HEK-Blue™ hTLR7 cell line (Invivogen). HEK-Blue™ hTLR7 cell line is a stably co-transfected cell line which expresses full-length human TLR7 and secretory SEAP reporter gene under the transcriptional regulation of an NF-κB response element. The TLR7 expression of the cell line has been already tested by RT-PCR. Transfectants with stable expression were selected using the antibiotic blasticidin and Zeocin.

[2] = test system: HLA-A*02:01 transgenic mouse; test: Test 10: in vivo adjuvant activity, cocktail vaccine b, IFNγ ELISPOT; conditions: added to cocktail vaccine b; 0.4 nmol per body, twice; FIG. 8 and 9
Protocol: Evaluation of In Vivo Adjuvant Activity in HLA-A*02:01 Transgenic Mouse
The in vivo adjuvant activity of the compound of Example 11 was evaluated in the following procedure. To cocktail vaccine b like Test 9 was added the compound prepared in Example 11 to prepare a vaccine. The vaccine was administered to a HLA-A*02:01 transgenic mouse, and the adjuvant activity of the vaccine was evaluated by the method of testing antigen-specific CTL induction.
Specifically, Compound of formula 4 and Peptide SEQ ID No. 3 were dissolved in DMSO, and then diluted with water for injection to concentrations of Compound of formula 4 of 3 mg/mL and Peptide SEQ ID No. 3 of 2.25 mg/mL. The diluted peptide solution was mixed and emulsified with an equal volume of Montanide ISA 51 VG to prepare cocktail vaccine b. Cocktail vaccine b was injected to mice intradermally at the tail base area in an amount for administering 300 μg of Compound of formula 4 per body and 225 μg of Peptide SEQ ID No. 3 per body. […] Then, after removal of the supernatant from the wells, stained spots on the ELISPOT plate were counted.

[3] = target: T1, human TLR7; test: Human TLR7 reporter gene assay (TLR7/NF-κB/SEAPorter HEK293 cell line), Tests 1 and 21; type: cell-based; conditions: Test 21; according to the method of Test 1; read-out: human EC50
Source text: Human TLR7 Reporter Gene Assay
as §1
According to the method of Test 1, human TLR7 reporter gene assay was done with the following samples, and the result was shown in the table below.

`CCC[C@@H](CO)Nc1nc(N)nc(C)c1Cc1ccc(C(=O)OCCOCCOCCOCCOC)cc1OC` [Example 6, 2,5,8,11-tetraoxatridecan-13-yl 4-[(2-amino-4-{[(2S)-1-hydroxypentan-2-yl]amino}-6-methylpyrimidin-5-yl)methyl]-3-methoxybenzoate] showed an EC50 [1] of 119 nM.
`CCCCCNc1nc(N)nc(C)c1Cc1ccc(COCCOCCOCCOCCOC)cc1OC` [Example 7, 5-{[2-methoxy-4-(2,5,8,11,14-pentaoxapentadecan-1-yl)phenyl]methyl}-6-methyl-N^4-pentylpyrimidine-2,4-diamine] gave an EC50 [1] of 71 nM.
In the case of `CCCCCNc1nc(N)nc(C)c1Cc1ccc(CN(CCOCCOCCOCCO)CCOCCOCCOCCO)cc1OC` [Example 11, 12-[(4-{[2-amino-4-methyl-6-(pentylamino)pyrimidin-5-yl]methyl}-3-methoxyphenyl)methyl]-3,6,9,15,18,21-hexaoxa-12-azatricosan-1,23-diol], the “CTL counts responsive to Peptide SEQ ID No. 1 or SEQ ID No. 4 compared with adding no compound” value [2] is reported as “more” and the EC50 [3] is reported as 774 nM.
